Measured values from patent publication US12503485B2, “Human aminosterol ENT-03 compounds, related compositions comprising the same, and methods of using the same” (Enterin, Inc., priority 2019, dated 2025).

Key:
PTPN6/SHP1 = target: T1, PTPN6/SHP1 (Homo sapiens, UniProt P29350); assay: Phosphatase assay PTPN6/SHP1; assay type: biochemical; details: for IC50: Table 2B, read-out: Compound IC50 (M) PTPN6/SHP1
T1 construct: purchased Recation Biology Inc

PTPN11/SHP2 = PTPN11/SHP2 (Homo sapiens, UniProt Q06124); assay: Phosphatase assay PTPN11/SHP2; assay type: biochemical; details: Table 2C; read-out: Compound IC50 (M) PTPN11/SHP2
Chain of PTPN11/SHP2 (Q06124 whole entry): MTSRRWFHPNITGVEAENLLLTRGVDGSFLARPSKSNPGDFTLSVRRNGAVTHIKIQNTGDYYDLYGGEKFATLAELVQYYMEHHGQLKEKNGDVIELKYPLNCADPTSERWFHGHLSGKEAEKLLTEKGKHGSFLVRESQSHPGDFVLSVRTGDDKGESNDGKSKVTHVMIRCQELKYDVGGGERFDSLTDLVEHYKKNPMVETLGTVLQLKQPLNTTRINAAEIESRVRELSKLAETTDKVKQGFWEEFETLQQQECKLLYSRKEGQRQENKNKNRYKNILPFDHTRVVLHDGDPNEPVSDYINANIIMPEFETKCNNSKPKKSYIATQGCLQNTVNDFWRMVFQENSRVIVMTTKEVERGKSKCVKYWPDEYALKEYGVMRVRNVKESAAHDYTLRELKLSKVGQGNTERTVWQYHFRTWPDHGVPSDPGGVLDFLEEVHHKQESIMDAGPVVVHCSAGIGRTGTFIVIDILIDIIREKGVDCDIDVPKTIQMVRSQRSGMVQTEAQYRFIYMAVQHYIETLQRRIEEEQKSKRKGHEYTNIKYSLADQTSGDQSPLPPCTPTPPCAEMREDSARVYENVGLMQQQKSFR

PTPN2/TC-PTP = target: T2, PTPN2/TC-PTP (Homo sapiens, UniProt P17706); assay: Phosphatase assay PTPN2/TC-PTP; assay type: biochemical; details: for IC50: Table 2C, read-out: Compound IC50 (M) PTPN2/TC-PTP
T2 construct: purchased Recation Biology Inc
T2 sequence (P17706 1-415): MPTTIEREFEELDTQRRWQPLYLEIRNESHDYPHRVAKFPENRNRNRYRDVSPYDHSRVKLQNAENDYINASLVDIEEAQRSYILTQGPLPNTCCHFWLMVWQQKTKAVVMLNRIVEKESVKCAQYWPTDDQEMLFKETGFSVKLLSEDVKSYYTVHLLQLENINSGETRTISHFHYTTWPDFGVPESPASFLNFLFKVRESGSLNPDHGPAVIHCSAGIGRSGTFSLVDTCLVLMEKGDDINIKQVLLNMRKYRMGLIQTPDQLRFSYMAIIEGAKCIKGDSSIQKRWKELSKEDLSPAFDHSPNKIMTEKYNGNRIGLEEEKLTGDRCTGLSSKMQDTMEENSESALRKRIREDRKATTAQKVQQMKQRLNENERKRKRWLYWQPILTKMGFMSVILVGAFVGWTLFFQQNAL

[1] = Weight gain in growing male mice; assay type: in vivo; details: growing male mice about 25 g, similar dosing regimen
Protocol: In a second experiment, growing male mice, about 25 grams, were administered either compound following a similar dosing regimen. As in the previous experiment, both compounds affected weight gain.

PP1A = target: T3, PP1A (Homo sapiens, UniProt P62136); assay: Phosphatase assay PP1A (DiFMUP fluorescence); assay type: biochemical; details: for IC50: Table 2B, read-out: Compound IC50 (M) PP1A
T3 construct: purchased Recation Biology Inc
T3 sequence (P62136 whole entry): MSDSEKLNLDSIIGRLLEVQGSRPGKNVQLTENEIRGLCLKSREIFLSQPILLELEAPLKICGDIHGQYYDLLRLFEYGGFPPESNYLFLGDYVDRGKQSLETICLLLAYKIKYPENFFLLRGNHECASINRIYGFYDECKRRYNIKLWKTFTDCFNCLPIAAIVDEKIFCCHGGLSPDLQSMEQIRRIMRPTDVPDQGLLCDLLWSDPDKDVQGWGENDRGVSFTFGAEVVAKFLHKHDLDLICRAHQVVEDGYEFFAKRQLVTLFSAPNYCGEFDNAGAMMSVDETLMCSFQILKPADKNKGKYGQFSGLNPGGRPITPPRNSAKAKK

PTPN11/SHP2-FL (E76K) = target: T4, PTPN11/SHP2-FL (E76K) (Homo sapiens, UniProt Q06124, E76K); assay: Phosphatase assay PTPN11/SHP2-FL (E76K)
T4 sequence (Q06124 2-597 isoform Q06124-1 E76K): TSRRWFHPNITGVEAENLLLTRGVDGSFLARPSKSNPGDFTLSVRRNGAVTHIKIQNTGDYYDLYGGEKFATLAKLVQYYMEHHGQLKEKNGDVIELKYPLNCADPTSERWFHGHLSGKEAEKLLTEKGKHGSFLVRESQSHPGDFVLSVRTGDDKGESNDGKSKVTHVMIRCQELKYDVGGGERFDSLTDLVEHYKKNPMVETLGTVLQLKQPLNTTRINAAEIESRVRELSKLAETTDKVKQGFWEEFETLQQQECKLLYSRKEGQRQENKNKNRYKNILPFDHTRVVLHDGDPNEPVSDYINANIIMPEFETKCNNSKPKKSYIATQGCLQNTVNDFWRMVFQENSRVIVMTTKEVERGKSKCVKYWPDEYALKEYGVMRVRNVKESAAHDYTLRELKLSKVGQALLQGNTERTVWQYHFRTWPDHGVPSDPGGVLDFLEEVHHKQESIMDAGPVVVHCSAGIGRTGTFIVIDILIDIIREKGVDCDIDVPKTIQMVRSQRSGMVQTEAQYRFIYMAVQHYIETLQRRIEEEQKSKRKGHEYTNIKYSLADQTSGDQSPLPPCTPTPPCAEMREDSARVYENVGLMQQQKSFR

[2] = Weight loss in male Swiss Webster mice, i.p. dosing; assay type: in vivo; details: male Swiss Webster mice about 50 g, i.p. 10 mg/kg every other day; for loss of starting body weight: by 27 days
Excerpt: Food was provided ad lib.

PTPRC/CD45 = target: T5, PTPRC/CD45 (Homo sapiens, UniProt P08575); assay: Phosphatase assay PTPRC/CD45; assay type: biochemical
T5 construct: purchased Recation Biology Inc
T5 sequence (P08575 26-1306): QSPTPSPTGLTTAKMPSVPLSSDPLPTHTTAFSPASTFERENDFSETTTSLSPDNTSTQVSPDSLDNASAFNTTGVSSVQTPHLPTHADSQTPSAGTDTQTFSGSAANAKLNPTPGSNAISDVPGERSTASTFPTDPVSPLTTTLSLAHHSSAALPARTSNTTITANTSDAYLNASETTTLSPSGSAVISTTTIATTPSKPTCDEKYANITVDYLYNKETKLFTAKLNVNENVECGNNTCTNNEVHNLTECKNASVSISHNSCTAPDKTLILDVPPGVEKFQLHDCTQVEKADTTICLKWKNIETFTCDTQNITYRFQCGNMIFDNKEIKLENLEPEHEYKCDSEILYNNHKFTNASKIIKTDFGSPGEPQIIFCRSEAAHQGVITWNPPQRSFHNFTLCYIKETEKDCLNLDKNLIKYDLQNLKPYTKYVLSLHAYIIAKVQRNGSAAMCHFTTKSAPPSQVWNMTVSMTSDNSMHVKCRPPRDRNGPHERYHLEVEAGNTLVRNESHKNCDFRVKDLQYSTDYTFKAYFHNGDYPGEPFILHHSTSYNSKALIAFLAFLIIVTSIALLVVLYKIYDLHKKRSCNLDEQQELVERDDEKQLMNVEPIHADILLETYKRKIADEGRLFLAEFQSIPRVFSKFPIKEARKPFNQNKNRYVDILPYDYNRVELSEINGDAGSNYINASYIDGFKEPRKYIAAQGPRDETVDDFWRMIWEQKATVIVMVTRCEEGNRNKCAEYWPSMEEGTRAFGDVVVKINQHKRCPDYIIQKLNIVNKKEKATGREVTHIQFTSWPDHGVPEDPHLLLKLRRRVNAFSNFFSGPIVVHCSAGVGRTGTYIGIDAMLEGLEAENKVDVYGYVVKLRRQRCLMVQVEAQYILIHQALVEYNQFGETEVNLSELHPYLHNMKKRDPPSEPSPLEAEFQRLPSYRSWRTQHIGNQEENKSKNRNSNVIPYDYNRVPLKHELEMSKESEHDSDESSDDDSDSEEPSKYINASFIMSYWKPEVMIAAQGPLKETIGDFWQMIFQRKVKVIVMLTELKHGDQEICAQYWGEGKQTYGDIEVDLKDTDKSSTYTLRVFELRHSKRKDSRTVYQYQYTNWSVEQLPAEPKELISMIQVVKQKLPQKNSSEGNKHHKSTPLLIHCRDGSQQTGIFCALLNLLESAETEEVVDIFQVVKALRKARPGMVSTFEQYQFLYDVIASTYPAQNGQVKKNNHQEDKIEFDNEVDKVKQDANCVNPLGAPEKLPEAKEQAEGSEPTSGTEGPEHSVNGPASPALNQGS

PP1B = target: T6, PP1B (Homo sapiens, UniProt P62140); assay: Phosphatase assay PP1B (DiFMUP fluorescence); assay type: biochemical; details: for IC50: Table 2B, read-out: Compound IC50 (M) PP1B
T6 construct: purchased Recation Biology Inc
T6 sequence (P62140 whole entry): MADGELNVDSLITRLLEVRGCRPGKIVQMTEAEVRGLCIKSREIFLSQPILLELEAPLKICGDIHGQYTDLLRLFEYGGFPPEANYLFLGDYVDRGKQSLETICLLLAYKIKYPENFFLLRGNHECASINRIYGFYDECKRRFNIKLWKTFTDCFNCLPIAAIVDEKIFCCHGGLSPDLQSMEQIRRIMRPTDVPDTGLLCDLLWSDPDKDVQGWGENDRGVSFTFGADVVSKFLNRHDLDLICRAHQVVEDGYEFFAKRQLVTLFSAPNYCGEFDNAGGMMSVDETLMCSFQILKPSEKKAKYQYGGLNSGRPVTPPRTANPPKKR

T1 sequence (P29350 whole entry): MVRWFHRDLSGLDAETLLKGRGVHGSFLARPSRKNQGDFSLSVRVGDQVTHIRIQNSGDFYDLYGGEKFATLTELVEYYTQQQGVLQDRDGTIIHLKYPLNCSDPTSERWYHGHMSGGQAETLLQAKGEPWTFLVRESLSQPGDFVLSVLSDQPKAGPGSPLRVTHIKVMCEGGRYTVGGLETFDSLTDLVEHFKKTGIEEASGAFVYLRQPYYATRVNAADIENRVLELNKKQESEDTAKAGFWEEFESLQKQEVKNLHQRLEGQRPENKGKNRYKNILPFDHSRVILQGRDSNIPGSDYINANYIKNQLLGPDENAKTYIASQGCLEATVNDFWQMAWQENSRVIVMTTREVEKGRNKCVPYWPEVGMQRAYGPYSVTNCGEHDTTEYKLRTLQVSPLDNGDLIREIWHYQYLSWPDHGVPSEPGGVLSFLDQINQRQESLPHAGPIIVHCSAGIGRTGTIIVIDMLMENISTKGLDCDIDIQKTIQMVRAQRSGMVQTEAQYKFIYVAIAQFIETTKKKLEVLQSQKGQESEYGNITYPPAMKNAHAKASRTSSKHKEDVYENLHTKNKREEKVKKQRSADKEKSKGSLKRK

SMILES | activity at PTPN6/SHP1, in words (PTPN6/SHP1) | IC50 (PTPN6/SHP1) | IC50 (PTPN11/SHP2) | IC50 (PTPN2/TC-PTP) | effect on growth, in words [1] | IC50 (PP1A) | inhibition of PTPN11 (E76K), in words (PTPN11/SHP2-FL (E76K)) | effect on weight, in words [2] | nadir of weight [2] | recovery to the starting weight [2] | loss of starting body weight [2] | activity on PTPRC/CD45, in words (PTPRC/CD45) | IC50 (PP1B) | activity at PTPN2, in words (PTPN2/TC-PTP) | activity at PP1A, in words (PP1A) | IC50 (PTPRC/CD45; Table 2B, read-out: Compound IC50 (M) PTPRC/CD45) | activity at PP1B, in words (PP1B)
CC(C)[C@@H](CC[C@@H](C)[C@H]1CC[C@H]2[C@@H]3[C@H](O)C[C@H]4C[C@@H](NCCCNCCCCNCCCN)CC[C@]4(C)[C@H]3CC[C@]12C)OS(=O)(=O)O (single isomer, unassigned) [ENT-02, trodusquemine] | Neither compound inhibits | > 0.0001 M | 3.75e-07 M | > 0.0001 M | suppressed growth | > 0.0001 M | potently inhibit | more severe decline | ~16 days | ~45 days | about 10% | target | > 0.0001 M | – | – | – | –
CC(CCCC(C)C1CCC2C3C(O)CC4CC(NCCCNCCCCNCCCN)CCC4(C)C3CCC12C)C(=O)O (single isomer, unassigned; ent-03) [ENT-03, 3-β-Spermino-7α-hydroxy-5α-cholestanoic acid] | – | > 0.0001 M | – | > 0.0001 M | continued normal growth | > 0.0001 M | potently inhibit | weight loss | ~16 days | ~45 days | about 10% | target | > 0.0001 M | inactive | inactive | 5.71e-07 M | inactive
